According to patent US20230026696A1, “TRPV4 RECEPTOR LIGANDS” (UNIVERSITY OF UTAH RESEARCH FOUNDATION, priority 2019, published 2023):
Where a name gives a salt, the structure may show the parent alone.

Molecular target: T1, human TRPV4 (Homo sapiens, UniProt Q9HBA0)
T1 construct: expressed in transfected cells
Experiment: Fluorometric cell-based Ca2+ flux assay, HEK-293 cells stably overexpressing human TRPV4
Details: HEK-293 stably overexpressing human TRPV4; agonist GSK1016790A 30 nM
Method: Fluorometric cell-based Ca^2+ flux assays were performed to assess TRPV4 antagonist activity and determine potency (IC50 values) in human embryonic kidney-293 cells (HEK-293) that stably overexpress human TRPV4. The assays were performed according to methods described in: Deering-Rice, C. E., Johansen, M. E., Roberts, J. K., Thomas, K. C., Romero, E. G., Lee, J., Yost, G. S., Veranth, J. M., and Reilly, C. A. (2012), Mol. Pharmacol. 81(3), 411-419; Shapiro, D., Deering-Rice, C. E., Romero, E. G., Hughen, R. W., Light, A. R., Veranth, J. M., and Reilly, C. A. (2013), Chem Res. Toxicol., 26, 750-758; and Deering-Rice, C. E., Mitchell, V. K., Romero, E. G., Abdel Aziz, M. H., and Reilly, C. A. (2014), Pharmacol. Res. & Perspectives. 2(5), 1-10.
The HEK-293 cells stably overexpressing human TRPV4 were grown to confluence in 2% (w/v) gelatin-coated 96-well plates in DMEM:F12 media supplemented with 5% fetal bovine serum, 1× penicillin/streptomycin (Invitrogen) and Geneticin (300 μg/mL).
The HEK-293 cells were prepared for assay by replacing the growth media with a 1:1 solution of LHC-9 and Fluo 4-Direct (Invitrogen) reagent containing Fluo 4-AM, pluronic F-127, probenecid, and a proprietary quencher dye. The cells were then incubated at 37° C. for 1 h in a cell culture incubator. The cells were subsequently washed by replacing the loading solution with LHC-9 containing 1 mM water-soluble probenecid (Invitrogen), 750 μM Trypan Red (ATT Bioquest), and a test compound (at various concentrations). The cells were incubated for an additional 30 minutes at 37° C. to allow for Fluo 4-AM cleavage and activation, as well as equilibration to both the test compounds and Fluo 4.
An agonist treatment solution (90 nM GSK1016790A, a potent activator of TRPV4) was prepared in LHC9 at 3× concentration and 25 μL was added to 50 μL of media on the cells in 96 well plates, providing a final concentration of 30 nM. Changes in cellular fluorescence were monitored with a BMG Labtech NOVOStar fluorescence plate reader for 1 minute at 37° C. Data were quantified as the maximum rate of change in fluorescence intensity (max ΔF/s), corrected for media only treatment (negative control), and represented as the percentage of response relative to the no antagonist control. A minimum of three replicates were used for each treatment condition, with a minimum of 8 concentrations to derive the IC50 values reported for each antagonist. The IC50 values for each antagonist, which are shown in Table 4 below, were calculated according to methods described in the assays were performed according to methods described in: Deering-Rice, C. E., Johansen, M. E., Roberts, J. K., Thomas, K. C., Romero, E. G., Lee, J., Yost, G. S., Veranth, J. M., and Reilly, C. A. (2012), Mol. Pharmacol. 81(3), 411-419; Shapiro, D., Deering-Rice, C. E., Romero, E. G., Hughen, R. W., Light, A. R., Veranth, J. M., and Reilly, C. A. (2013), Chem Res. Toxicol., 26, 750-758; and Deering-Rice, C. E., Mitchell, V. K., Romero, E. G., Abdel Aziz, M. H., and Reilly, C. A. (2014), Pharmacol. Res. & Perspectives. 2(5), 1-10.

T1 sequence (Q9HBA0 whole entry): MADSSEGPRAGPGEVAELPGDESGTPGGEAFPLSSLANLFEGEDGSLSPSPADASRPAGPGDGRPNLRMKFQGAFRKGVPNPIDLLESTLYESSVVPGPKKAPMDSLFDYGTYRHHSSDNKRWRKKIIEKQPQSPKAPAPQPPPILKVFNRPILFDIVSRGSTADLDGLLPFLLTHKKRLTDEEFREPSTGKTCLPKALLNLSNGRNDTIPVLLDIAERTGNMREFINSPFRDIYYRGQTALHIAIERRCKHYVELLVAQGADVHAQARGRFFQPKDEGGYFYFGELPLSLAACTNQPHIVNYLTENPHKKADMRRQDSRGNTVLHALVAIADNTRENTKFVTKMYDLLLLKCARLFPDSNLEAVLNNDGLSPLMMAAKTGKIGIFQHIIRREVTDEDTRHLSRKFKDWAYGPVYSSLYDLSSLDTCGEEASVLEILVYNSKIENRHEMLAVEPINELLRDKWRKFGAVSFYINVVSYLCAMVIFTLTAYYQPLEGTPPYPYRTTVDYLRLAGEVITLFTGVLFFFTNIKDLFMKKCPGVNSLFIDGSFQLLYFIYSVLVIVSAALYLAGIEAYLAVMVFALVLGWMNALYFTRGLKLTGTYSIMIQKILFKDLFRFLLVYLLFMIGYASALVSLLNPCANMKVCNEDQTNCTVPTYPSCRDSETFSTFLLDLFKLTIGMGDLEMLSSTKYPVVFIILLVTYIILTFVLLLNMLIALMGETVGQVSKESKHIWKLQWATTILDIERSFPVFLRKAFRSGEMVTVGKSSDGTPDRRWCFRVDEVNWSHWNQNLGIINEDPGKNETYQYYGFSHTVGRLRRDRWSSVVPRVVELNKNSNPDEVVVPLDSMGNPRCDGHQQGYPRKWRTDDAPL

SMILES | IC50
N#Cc1ccc(OCC2(CO)CN(S(=O)(=O)c3ccc(F)c(Cl)c3)C2)cc1F [Compound 67, 4-((1-((3-chloro-4-fluorophenyl)sulfonyl)-3-(hydroxymethyl)azetidin-3-yl)methoxy)-2-fluorobenzonitrile] | 5000 nM
COCCNCC1(COc2ccc(C#N)c(F)c2)CN(S(=O)(=O)c2ccc(Cl)cc2Cl)C1 [Compound 21, 4-((1-((2,4-dichlorophenyl)sulfonyl)-3-(((2-methoxyethyl)amino)methyl)azetidin-3-yl)methoxy)-2-fluorobenzonitrile hydrochloride] | 18.7 nM
N#Cc1ccc(S(=O)(=O)N2CC(CO)(COc3ccc(C#N)c(F)c3)C2)c(Cl)c1 [Compound 60, 4-((1-((2-Chloro-4-cyanophenyl)sulfonyl)-3-(hydroxymethyl)azetidin-3-yl)methoxy)-2-fluorobenzonitrile] | 54 nM
N#Cc1ccc(OCC2(CNCC3CCOCC3)CN(S(=O)(=O)c3ccc(Cl)cc3Cl)C2)cc1F [Compound 29, 4-((1-((2,4-Dichlorophenyl)sulfonyl)-3-((((tetrahydro-2H-pyran-4-yl)methyl)amino)methyl)azetidin-3-yl)methoxy)-2-fluorobenzonitrile hydrochloride] | 5.2 nM
N#Cc1ccc(OCC2(CO)CN(S(=O)(=O)c3ccc(C(F)(F)F)cc3Cl)C2)cc1F [Compound 59, 4-((1-((2-Chloro-4-(trifluoromethyl)phenyl)sulfonyl)-3-(hydroxymethyl)azetidin-3-yl)methoxy)-2-fluorobenzonitrile] | 481 nM
Cc1ccc(S(=O)(=O)N2CC(CO)(COc3ccc(C#N)c(F)c3)C2)c(C#N)c1 [Compound 103, 4-((1-((2-Cyano-4-methylphenyl)sulfonyl)-3-(hydroxymethyl)azetidin-3-yl)methoxy)-2-fluorobenzonitrile] | 14.7 nM
C[C@H](O)CNCC1(COc2ccc(C#N)c(F)c2)CN(S(=O)(=O)c2ccc(Cl)cc2Cl)C1 [Compound 31, (S)-4-((1-((2,4-dichlorophenyl)sulfonyl)-3-(((2-hydroxypropyl)amino)methyl)azetidin-3-yl)methoxy)-2-fluorobenzonitrile hydrochloride] | 0.4 nM
CC(CO)NCC1(COc2ccc(C#N)c(F)c2)CN(S(=O)(=O)c2ccc(Cl)cc2Cl)C1 (stereo not shown) [Compound 32, 4-((1-((2,4-Dichlorophenyl)sulfonyl)-3-(((1-hydroxypropan-2-yl)amino)methyl)azetidin-3-yl)methoxy)-2-fluorobenzonitrile hydrochloride] | 0.3 nM
O=S(=O)(c1ccc(Cl)cc1Cl)N1CC(CO)(COc2cccnc2)C1 [Compound 97, (1-((2,4-Dichlorophenyl)sulfonyl)-3-((pyridin-3-yloxy)methyl)azetidin-3-yl)methanol] | ~5000 nM
N#Cc1ccc(OCC2(CN[C@H]3C[C@@H](O)C3)CN(S(=O)(=O)c3ccc(Cl)cc3Cl)C2)cc1F [Compound 38, 4-((1-((2,4-Dichlorophenyl)sulfonyl)-3-((((cis)-3-hydroxycyclobutyl)amino)methyl)azetidin-3-yl)methoxy)-2-fluorobenzonitrile hydrochloride] | 1.8 nM
N#Cc1ccc(OCC2(CN[C@H]3C[C@H](O)C3)CN(S(=O)(=O)c3ccc(Cl)cc3Cl)C2)cc1F [Compound 42, 4-((1-((2,4-Dichlorophenyl)sulfonyl)-3-((((trans)-3-hydroxycyclobutyl)amino)methyl)azetidin-3-yl)methoxy)-2-fluorobenzonitrile hydrochloride] | 1.3 nM
N#Cc1ccc(OCC2(CNC3CCOCC3)CN(S(=O)(=O)c3ccc(Cl)cc3Cl)C2)cc1F [Compound 18, 4-((1-((2,4-Dichlorophenyl)sulfonyl)-3-(((tetrahydro-2H-pyran-4-yl)amino)methyl)azetidin-3-yl)methoxy)-2-fluorobenzonitrile hydrochloride] | 0.7 nM
CNCCN(C)C(=O)C1(COc2ccc(C#N)cc2)CN(S(=O)(=O)c2ccc(Cl)cc2Cl)C1 [Compound 5, 3-((4-Cyanophenoxy)methyl)-1-((2,4-dichlorophenyl)sulfonyl)-N-methyl-N-(2-(methylamino)ethyl)azetidine-3-carboxamide] | 2250 nM
CC(=O)OCC1(COc2ccc(C#N)c(F)c2)CN(S(=O)(=O)c2ccc(Cl)cc2Cl)C1 [Compound 12, (3-((4-Cyano-3-fluorophenoxy)methyl)-1-((2,4-dichlorophenyl)sulfonyl)azetidin-3-yl)methyl acetate] | 303 nM
N#Cc1ccc(OCC2(CNCC3COC3)CN(S(=O)(=O)c3ccc(Cl)cc3Cl)C2)cc1F [Compound 27, 4-((1-((2,4-Dichlorophenyl)sulfonyl)-3-(((oxetan-3-ylmethyl)amino)methyl)azetidin-3-yl)methoxy)-2-fluorobenzonitrile] | 1 nM
N#Cc1ccc(OCC2(CN[C@H]3CC[C@H](O)CC3)CN(S(=O)(=O)c3ccccc3C#N)C2)cc1F [Compound 112, 4-((1-((2-Cyanophenyl)sulfonyl)-3-(((trans-4-hydroxycyclohexyl)amino)methyl)azetidin-3-yl)methoxy)-2-fluorobenzonitrile] | 0.29 nM
N#Cc1ccc(OCC2(COS(=O)(=O)CCN)CN(S(=O)(=O)c3ccc(Cl)cc3Cl)C2)cc1F [Compound 15, (3-((4-Cyano-3-fluorophenoxy)methyl)-1-((2,4-dichlorophenyl)sulfonyl)azetidin-3-yl)methyl 2-aminoethane-1-sulfonate trifluoroacetate salt] | 21 nM
N#Cc1ccc(OCC2(CO)CN(S(=O)(=O)c3cccc(C(F)(F)F)c3)C2)cc1F [Compound 70, 2-Fluoro-4-((3-(hydroxymethyl)-1-((3-(trifluoromethyl)phenyl)sulfonyl)azetidin-3-yl)methoxy)benzonitrile] | 5000 nM
N#Cc1ccc(OCC2(CO)CN(S(=O)(=O)c3ccc(C(F)(F)F)cc3C#N)C2)cc1F [Compound 86, 4-((1-((2-Cyano-4-(trifluoromethyl)phenyl)sulfonyl)-3-(hydroxymethyl)azetidin-3-yl)methoxy)-2-fluorobenzonitrile] | 22.3 nM
CC1(COc2ccc(C#N)cc2)CN(S(=O)(=O)c2ccc(Cl)cc2Cl)C1 [Compound 1, 4-((1-((2,4-Dichlorophenyl)sulfonyl)-3-methylazetidin-3-yl)methoxy)benzonitrile] | 510 nM
N#Cc1ccc(OCC2(CNCC(O)CO)CN(S(=O)(=O)c3ccccc3C#N)C2)cc1F (stereo not shown) [Compound 115, 4-((1-((2-Cyanophenyl)sulfonyl)-3-(((2,3-dihydroxypropyl)amino)methyl)azetidin-3-yl)methoxy)-2-fluorobenzonitrile] | 1.98 nM
O=S(=O)(c1ccc(Cl)cc1Cl)N1CC(CO)(COc2ccncc2)C1 [Compound 91, (1-((2,4-Dichlorophenyl)sulfonyl)-3-((pyridin-4-yloxy)methyl)azetidin-3-yl)methanol] | ~5000 nM
COC(=O)c1ccc(OCC2(CO)CN(S(=O)(=O)c3ccc(Cl)cc3Cl)C2)cc1 [Compound 90, Methyl 4-((1-((2,4-dichlorophenyl)sulfonyl)-3-(hydroxymethyl)azetidin-3-yl)methoxy)benzoate] | ~5000 nM
N#Cc1ccc(OCC2(CO)CN(S(=O)(=O)c3ccccc3C#N)C2)cc1F [Compound 85, 4-((1-((2-Cyanophenyl)sulfonyl)-3-(hydroxymethyl)azetidin-3-yl)methoxy)-2-fluorobenzonitrile] | 4.9 nM
CC(O)CCNCC1(COc2ccc(C#N)c(F)c2)CN(S(=O)(=O)c2ccc(Cl)cc2Cl)C1 (stereo not shown) [Compound 35, 4-((1-((2,4-dichlorophenyl)sulfonyl)-3-(((3-hydroxybutyl)amino)methyl)azetidin-3-yl)methoxy)-2-fluorobenzonitrile hydrochloride] | 0.7 nM
